Test results taken from US5672715A, “Herbicidal substituted 3-aryl-pyrazoles” (Monsanto Company, priority 1995, dated 1997).
Where two headings read alike, the source gives them in different places.

Columns and labels:
Type in all cases: in vivo
[1] = tested on: Barnyardgrass; assay: pre-emergence herbicide test; settings: Echinochloa crus-galli, pre-emergence, read-out: % plant inhibition
In short: (§1)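 Steps: compact topsoil in pan; place seeds; level-fill with cover soil; add a known amount of compound before or after covering; keep pans in greenhouse, bottom-watering as needed; rate % inhibition at about 14 days.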

[2] = tested on: Cocklebur; assay: pre-emergence herbicide test; settings: Xanthium strumarium, pre-emergence, read-out: % plant inhibition
In short: as §1

[3] = tested on: Corn; assay: pre-emergence herbicide test; settings: Zea mays, pre-emergence, read-out: % plant inhibition
In short: as §1

[4] = tested on: Morning Glory; assay: pre-emergence herbicide test; settings: Ipomoea, pre-emergence, read-out: % plant inhibition
In short: as §1

[5] = tested on: Rice; assay: pre-emergence herbicide test; settings: Oryza sativa, read-out: % plant inhibition
In short: as §1

[6] = tested on: Soybean; assay: pre-emergence herbicide test; settings: Glycine max, pre-emergence, read-out: % plant inhibition
In short: as §1

[7] = tested on: Velvetleaf; assay: pre-emergence herbicide test; settings: Abutilon theophrasti, pre-emergence, read-out: % plant inhibition
In short: as §1

[8] = tested on: Yellow Foxtail; assay: pre-emergence herbicide test; settings: Setaria, read-out: % plant inhibition
In short: as §1

[9] = tested on: Yellow Nutsedge; assay: pre-emergence herbicide test; settings: Cyperus, read-out: % plant inhibition
In short: as §1

[10] = tested on: Barnyardgrass; assay: post-emergence herbicide test; settings: Echinochloa crus-galli, post-emergence, read-out: % plant inhibition
In short: (§2)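 Two- to three-week-old plants, greenhouse-grown in compacted topsoil, received candidate chemical by atomizer spray at 1870 L/Ha. Scored as percent inhibition.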

[11] = tested on: Blackgrass; assay: post-emergence herbicide test; settings: Alopecurus myosuroides, post-emergence, read-out: % plant inhibition; for inhibition at 7.95803 g/ha: 0.0071 lb/A; for inhibition at 40.0143 g/ha: 0.0357 lb/A; for inhibition at 200.072 g/ha: 0.1785 lb/A; for inhibition at 1000.92 g/ha: 0.893 lb/A
In short: as §2

[12] = tested on: Common Chickweed; assay: post-emergence herbicide test; settings: post-emergence, read-out: % plant inhibition
In short: as §2

[13] = tested on: Morning Glory; assay: post-emergence herbicide test; settings: Ipomoea, post-emergence, read-out: % plant inhibition
In short: as §2

[14] = tested on: Soybean; assay: post-emergence herbicide test; settings: Glycine max, post-emergence, read-out: % plant inhibition
In short: as §2

[15] = tested on: Velvetleaf; assay: post-emergence herbicide test; settings: Abutilon theophrasti, post-emergence, read-out: % plant inhibition
In short: as §2

[16] = tested on: Yellow Foxtail; assay: post-emergence herbicide test; settings: Setaria, read-out: % plant inhibition
In short: as §2

C#CCOc1cc(-c2nn(C)c(C(F)(F)F)c2C)c(F)cc1Cl [Compound 39]
98%: inhibition at 200.072 g/ha ([10]; 0.1785 lb/A) | inhibition at 1000.92 g/ha ([10]; 0.893 lb/A)
50%: inhibition at 7.95803 g/ha ([2]; 0.0071 lb/A)
75%: inhibition at 7.95803 g/ha ([15]; 0.0071 lb/A)
30%: inhibition at 7.95803 g/ha ([10]; 0.0071 lb/A)
85%: inhibition at 40.0143 g/ha ([4]; 0.0357 lb/A) | inhibition at 200.072 g/ha ([5]; 0.1785 lb/A)
100%: inhibition at 40.0143 g/ha ([1]; 0.0357 lb/A) | inhibition at 200.072 g/ha ([1]; 0.1785 lb/A) | inhibition at 280.212 g/ha ([1]; 0.25 lb/A) | inhibition at 1000.92 g/ha ([1]; 0.893 lb/A) | inhibition at 1000.92 g/ha ([2]; 0.893 lb/A) | inhibition at 280.212 g/ha ([3]; 0.25 lb/A) | inhibition at 1000.92 g/ha ([3]; 0.893 lb/A) | inhibition at 200.072 g/ha ([4]; 0.1785 lb/A) | inhibition at 1000.92 g/ha ([4]; 0.893 lb/A) | inhibition at 1000.92 g/ha ([5]; 0.893 lb/A) | inhibition at 40.0143 g/ha ([6]; 0.0357 lb/A) | inhibition at 1000.92 g/ha ([6]; 0.893 lb/A) | inhibition at 7.95803 g/ha ([7]; 0.0071 lb/A) | inhibition at 40.0143 g/ha ([7]; 0.0357 lb/A) | inhibition at 200.072 g/ha ([7]; 0.1785 lb/A) | inhibition at 1000.92 g/ha ([7]; 0.893 lb/A) | inhibition at 40.0143 g/ha ([8]; 0.0357 lb/A) | inhibition at 200.072 g/ha ([8]; 0.1785 lb/A) | inhibition at 280.212 g/ha ([8]; 0.25 lb/A) | inhibition at 1000.92 g/ha ([8]; 0.893 lb/A) | inhibition at 1000.92 g/ha ([11]; Table 5a) | inhibition at 40.0143 g/ha ([12]; 0.0357 lb/A) | inhibition at 200.072 g/ha ([12]; 0.1785 lb/A) | inhibition at 1000.92 g/ha ([12]; 0.893 lb/A) | inhibition at 200.072 g/ha ([13]; 0.1785 lb/A) | inhibition at 1000.92 g/ha ([14]; 0.893 lb/A) | inhibition at 40.0143 g/ha ([15]; 0.0357 lb/A) | inhibition at 200.072 g/ha ([15]; 0.1785 lb/A) | inhibition at 1000.92 g/ha ([15]; 0.893 lb/A) | inhibition at 40.0143 g/ha ([16]; 0.0357 lb/A) | inhibition at 200.072 g/ha ([16]; 0.1785 lb/A) | inhibition at 1000.92 g/ha ([16]; 0.893 lb/A)
10%: inhibition at 7.95803 g/ha ([3]; 0.0071 lb/A) | inhibition at 7.95803 g/ha ([11]; Table 4a)
0%: inhibition at 7.95803 g/ha ([6]; 0.0071 lb/A) | inhibition at 7.95803 g/ha ([11]; Table 5a) | inhibition at 7.95803 g/ha ([12]; 0.0071 lb/A)
65%: inhibition at 7.95803 g/ha ([5]; 0.0071 lb/A) | inhibition at 1000.92 g/ha ([9]; 0.893 lb/A) | inhibition at 7.95803 g/ha ([16]; 0.0071 lb/A)
70%: inhibition at 7.95803 g/ha ([4]; 0.0071 lb/A) | inhibition at 40.0143 g/ha ([5]; 0.0357 lb/A) | inhibition at 7.95803 g/ha ([9]; 0.0071 lb/A) | inhibition at 40.0143 g/ha ([10]; 0.0357 lb/A) | inhibition at 1000.92 g/ha ([11]; Table 4a) | inhibition at 40.0143 g/ha ([14]; 0.0357 lb/A) | inhibition at 200.072 g/ha ([14]; 0.1785 lb/A)
55%: inhibition at 200.072 g/ha ([9]; 0.1785 lb/A)
35%: inhibition at 40.0143 g/ha ([11]; Table 4a)
25%: inhibition at 40.0143 g/ha ([9]; 0.0357 lb/A) | inhibition at 200.072 g/ha ([11]; Table 4a) | inhibition at 7.95803 g/ha ([14]; 0.0071 lb/A)
80%: inhibition at 7.95803 g/ha ([1]; 0.0071 lb/A) | inhibition at 40.0143 g/ha ([2]; 0.0357 lb/A) | inhibition at 40.0143 g/ha ([3]; 0.0357 lb/A) | inhibition at 40.0143 g/ha ([11]; Table 5a) | inhibition at 40.0143 g/ha ([13]; 0.0357 lb/A)
95%: inhibition at 200.072 g/ha ([2]; 0.1785 lb/A) | inhibition at 200.072 g/ha ([3]; 0.1785 lb/A) | inhibition at 200.072 g/ha ([6]; 0.1785 lb/A) | inhibition at 280.212 g/ha ([6]; 0.25 lb/A) | inhibition at 7.95803 g/ha ([8]; 0.0071 lb/A) | inhibition at 200.072 g/ha ([11]; Table 5a) | inhibition at 7.95803 g/ha ([13]; 0.0071 lb/A) | inhibition at 1000.92 g/ha ([13]; 0.893 lb/A)
